# Assay results taken from PubChem BioAssay (NCI).
#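 96-well plates; 48 h exposure; 5 concentrations. Endpoints by linear interpolation between flanking doses. Not reached: highest tested concentration assigned. GI50 is the concentration that inhibits growth by half. TGI: total growth inhibition.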
# Tests used:
# Assay in all cases: NCI anticancer screen, dose series, 48 h
# [1] = tested on: 786-0 renal
# [2] = tested on: A498 renal
# [3] = tested on: A549 NSCLC
# [4] = tested on: ACHN renal
# [5] = tested on: BT-549 breast
# [6] = tested on: CAKI-1 renal
# [7] = tested on: CCRF-CEM leukemia
# [8] = tested on: COLO 205 colon
# [9] = tested on: DU-145 prostate
# [10] = tested on: EKVX NSCLC
# [11] = tested on: HCC-2998 colon
# [12] = tested on: HCT-116 colon
# [13] = tested on: HCT-15 colon
# [14] = tested on: HL-60(TB) leukemia
# [15] = tested on: HOP-62 NSCLC
# [16] = tested on: HOP-92 NSCLC
# [17] = tested on: HS 578T breast
# [18] = tested on: HT29 colon
# [19] = tested on: IGROV1 ovarian
# [20] = tested on: K-562 leukemia
# [21] = tested on: KM12 colon
# [22] = tested on: LOX IMVI melanoma
# [23] = tested on: M14 melanoma
# [24] = tested on: MALME-3M melanoma
# [25] = tested on: MCF7 breast
# [26] = tested on: MDA-MB-231 breast
# [27] = tested on: MDA-MB-435
# [28] = tested on: MOLT-4 leukemia
# [29] = tested on: NCI-H226 lung
# [30] = tested on: NCI-H23 lung
# [31] = tested on: NCI-H460 lung
# [32] = tested on: NCI-H522 lung
# [33] = tested on: NCI/ADR-RES ovarian
# [34] = tested on: OVCAR-3 ovarian
# [35] = tested on: OVCAR-4 ovarian
# [36] = tested on: OVCAR-5 ovarian
# [37] = tested on: OVCAR-8 ovarian
# [38] = tested on: PC-3 prostate
# [39] = tested on: RPMI-8226 leukemia
# [40] = tested on: RXF 393 renal
# [41] = tested on: SF-268 CNS
# [42] = tested on: SF-295 CNS
# [43] = tested on: SF-539 CNS
# [44] = tested on: SK-MEL-2 melanoma
# [45] = tested on: SK-MEL-28 melanoma
# [46] = tested on: SK-MEL-5 melanoma
# [47] = tested on: SK-OV-3 ovarian
# [48] = tested on: SN12C renal
# [49] = tested on: SNB-19 CNS
# [50] = tested on: SNB-75 CNS
# [51] = tested on: SR leukemia
# [52] = tested on: SW-620 colon
# [53] = tested on: T-47D breast
# [54] = tested on: TK-10 renal
# [55] = tested on: U251 CNS
# [56] = tested on: UACC-257 melanoma
# [57] = tested on: UACC-62 melanoma
# [58] = tested on: UO-31 renal
compound,measurement,setting,value
COc1cc(-c2cc(-c3ccc(Nc4nc(Nc5ccc(Cl)cc5)nc(Nc5ccc(Cl)cc5)n4)cc3)no2)cc(OC)c1OC,GI50,[1],3.6 µM
same,TGI,[1],20.1 µM
same,GI50,[2],2.71 µM
same,TGI,[2],> 100 µM
same,GI50,[3],13.5 µM
same,TGI,[3],> 100 µM
same,GI50,[4],14.9 µM
same,TGI,[4],> 100 µM
same,GI50,[5],13.9 µM
same,TGI,[5],> 100 µM
same,GI50,[6],5.53 µM
same,TGI,[6],> 100 µM
same,GI50,[7],2.16 µM
same,TGI,[7],11.9 µM
same,GI50,[8],2.26 µM
same,TGI,[8],21.3 µM
same,GI50,[9],7.08 µM
same,TGI,[9],> 100 µM
same,GI50,[10],24.9 µM
same,TGI,[10],> 100 µM
same,GI50,[11],13.1 µM
same,TGI,[11],91.3 µM
same,GI50,[12],4.31 µM
same,TGI,[12],42.9 µM
same,GI50,[13],18.9 µM
same,TGI,[13],> 100 µM
same,GI50,[14],2.32 µM
same,TGI,[14],55.5 µM
same,GI50,[15],11 µM
same,TGI,[15],84.2 µM
same,GI50,[16],0.0166 µM
same,TGI,[16],0.32 µM
same,GI50,[17],1.71 µM
same,TGI,[17],> 100 µM
same,GI50,[18],16.9 µM
same,TGI,[18],> 100 µM
same,GI50,[19],3.22 µM
same,TGI,[19],> 100 µM
same,GI50,[20],1.98 µM
same,TGI,[20],19.4 µM
same,GI50,[21],14.2 µM
same,TGI,[21],> 100 µM
same,GI50,[22],11.4 µM
same,TGI,[22],> 100 µM
same,GI50,[23],7.11 µM
same,TGI,[23],> 100 µM
same,GI50,[24],50.3 µM
same,TGI,[24],> 100 µM
same,GI50,[25],3 µM
same,TGI,[25],69.7 µM
same,GI50,[26],5.15 µM
same,TGI,[26],> 100 µM
same,GI50,[27],7.15 µM
same,TGI,[27],> 100 µM
same,GI50,[28],1.23 µM
same,TGI,[28],23.7 µM
same,GI50,[29],27 µM
same,TGI,[29],> 100 µM
same,GI50,[30],18 µM
same,TGI,[30],> 100 µM
same,GI50,[31],6.79 µM
same,TGI,[31],46.4 µM
same,GI50,[32],2.89 µM
same,TGI,[32],> 100 µM
same,GI50,[33],11.3 µM
same,TGI,[33],> 100 µM
same,GI50,[34],6.68 µM
same,TGI,[34],88.9 µM
same,GI50,[35],57.1 µM
same,TGI,[35],> 100 µM
same,GI50,[36],27.3 µM
same,TGI,[36],> 100 µM
same,GI50,[37],36 µM
same,TGI,[37],> 100 µM
same,GI50,[38],0.565 µM
same,TGI,[38],9.19 µM
same,GI50,[39],1.75 µM
same,TGI,[39],> 100 µM
same,GI50,[40],0.816 µM
same,TGI,[40],7.08 µM
same,GI50,[41],6.05 µM
same,TGI,[41],> 100 µM
same,GI50,[42],35.1 µM
same,TGI,[42],> 100 µM
same,GI50,[43],9.05 µM
same,TGI,[43],> 100 µM
same,GI50,[44],5.04 µM
same,TGI,[44],> 100 µM
same,GI50,[45],14.4 µM
same,TGI,[45],> 100 µM
same,GI50,[46],4.47 µM
same,TGI,[46],58.1 µM
same,GI50,[47],> 100 µM
same,TGI,[47],> 100 µM
same,GI50,[48],39.1 µM
same,TGI,[48],> 100 µM
same,GI50,[49],26.8 µM
same,TGI,[49],> 100 µM
same,GI50,[50],12.7 µM
same,TGI,[50],> 100 µM
same,GI50,[51],1.92 µM
same,TGI,[51],21.6 µM
same,GI50,[52],19.9 µM
same,TGI,[52],> 100 µM
same,GI50,[53],3.15 µM
same,TGI,[53],> 100 µM
same,GI50,[54],25.4 µM
same,TGI,[54],> 100 µM
same,GI50,[55],11.4 µM
same,TGI,[55],> 100 µM
same,GI50,[56],23.5 µM
same,TGI,[56],> 100 µM
same,GI50,[57],71.7 µM
same,TGI,[57],> 100 µM
same,GI50,[58],6 µM
same,TGI,[58],> 100 µM
COc1cc(N2CCN(C(C)C)CC2)ccc1Nc1nc(Nc2ccc(F)cc2C(N)=O)c2cc[nH]c2n1,GI50,[1],1.33 µM
same,TGI,[1],5.45 µM
same,GI50,[2],0.165 µM
same,TGI,[2],3.65 µM
same,GI50,[3],0.121 µM
same,TGI,[3],4.17 µM
same,GI50,[4],0.502 µM
same,TGI,[4],5.2 µM
same,GI50,[5],3.28 µM
same,TGI,[5],6.93 µM
same,GI50,[6],0.911 µM
same,TGI,[6],5.29 µM
same,GI50,[7],0.277 µM
same,TGI,[7],21.3 µM
same,GI50,[8],0.0241 µM
same,TGI,[8],0.126 µM
same,GI50,[9],0.234 µM
same,TGI,[9],4.63 µM
same,GI50,[10],0.48 µM
same,TGI,[10],7.19 µM
same,GI50,[11],0.558 µM
same,TGI,[11],5.63 µM
same,GI50,[12],0.119 µM
same,TGI,[12],3.6 µM
same,GI50,[13],0.387 µM
same,TGI,[13],8.16 µM
same,GI50,[14],0.0594 µM
same,TGI,[14],4.7 µM
same,GI50,[15],0.668 µM
same,TGI,[15],5.26 µM
same,GI50,[16],0.0148 µM
same,TGI,[16],0.687 µM
same,GI50,[17],2.67 µM
same,TGI,[17],9.8 µM
same,GI50,[18],0.0208 µM
same,TGI,[18],2.88 µM
same,GI50,[19],0.392 µM
same,TGI,[19],6.94 µM
same,GI50,[20],3.31 µM
same,TGI,[20],15.2 µM
same,GI50,[21],3.14 µM
same,TGI,[21],7.97 µM
same,GI50,[22],0.124 µM
same,TGI,[22],4.63 µM
same,GI50,[23],0.18 µM
same,TGI,[23],4.07 µM
same,GI50,[24],0.228 µM
same,TGI,[24],5.22 µM
same,GI50,[25],0.0154 µM
same,TGI,[25],4.07 µM
same,GI50,[26],2.98 µM
same,TGI,[26],7.22 µM
same,GI50,[27],0.242 µM
same,TGI,[27],5.45 µM
same,GI50,[28],5.24 µM
same,TGI,[28],15.4 µM
same,GI50,[29],1.11 µM
same,TGI,[29],6.65 µM
same,GI50,[30],0.304 µM
same,TGI,[30],6.65 µM
same,GI50,[31],0.0985 µM
same,TGI,[31],3.72 µM
same,GI50,[32],2.8 µM
same,TGI,[32],6.42 µM
same,GI50,[33],3.76 µM
same,TGI,[33],11.6 µM
same,GI50,[34],3.08 µM
same,TGI,[34],6.43 µM
same,GI50,[35],2.98 µM
same,TGI,[35],7.04 µM
same,GI50,[36],0.245 µM
same,TGI,[36],6.27 µM
same,GI50,[37],0.363 µM
same,TGI,[37],5.43 µM
same,GI50,[38],3.75 µM
same,TGI,[38],12.9 µM
same,GI50,[39],3.69 µM
same,TGI,[39],12.5 µM
same,GI50,[40],0.857 µM
same,TGI,[40],5.27 µM
same,GI50,[41],3.36 µM
same,TGI,[41],7.92 µM
same,GI50,[42],3.99 µM
same,TGI,[42],10.3 µM
same,GI50,[43],2.76 µM
same,TGI,[43],6.33 µM
same,GI50,[44],0.163 µM
same,TGI,[44],1.77 µM
same,GI50,[45],3.69 µM
same,TGI,[45],7.59 µM
same,GI50,[46],0.747 µM
same,TGI,[46],5.28 µM
same,GI50,[47],0.317 µM
same,TGI,[47],3.03 µM
same,GI50,[48],2.54 µM
same,TGI,[48],5.9 µM
same,GI50,[49],3.98 µM
same,TGI,[49],11.4 µM
same,GI50,[50],3.04 µM
same,TGI,[50],6.32 µM
same,GI50,[51],0.0145 µM
same,TGI,[51],10.1 µM
same,GI50,[52],0.0905 µM
same,TGI,[52],4.17 µM
same,GI50,[53],3.49 µM
same,TGI,[53],8.2 µM
same,GI50,[54],0.17 µM
same,TGI,[54],4.68 µM
same,GI50,[55],2.72 µM
same,TGI,[55],6.13 µM
same,GI50,[56],0.194 µM
same,TGI,[56],5.6 µM
same,GI50,[57],2.53 µM
same,TGI,[57],6.42 µM
same,GI50,[58],0.996 µM
same,TGI,[58],5.28 µM
